Assay: recombinant barcode read abundance after kanamycin selection (control-corrected) (log10(CPM+1)); higher = more efficient recombination; sequences stand for … in AGTGCAGAGAAAATCGGCCAGTTTTCTCTGCCTGCAGTCCGCATGCCGT…AGATTTATGCAGCGGACTGCCTTTCTCCCAAAGTGATAAACCGGACAGTATCATGGACCGGTTTTCCCGGTAATCCGTATTTGCAAGGTTGGTTTCACT; site = the 11-nt target
How it was run: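 Two replicates per condition were plated: chloramphenicol/ampicillin LB agar for the control, and chloramphenicol/ampicillin/kanamycin with 0.1 mM IPTG for selection. The pooled E. coli screen behind them paired targets with IS621 bridge RNA target-binding loops. Recombination efficiency is expressed from averaged, control-corrected barcode counts per million at recombinant junctions, as log10(CPM+1).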
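Note: IS621 recombinase and bridge RNA in Escherichia coli cells.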

CCGGGTTCTTGGGTTCTAACCTGTTGCCT (site CTGGGTTCTAG)
recombinant barcode read abundance (log10): 0.154

CCGGTCCCTTGGGTTCTAACCTGTTGCAG (site CCGGTCCCTCT)
recombinant barcode read abundance (log10): 2.07

CCGGTCCCTTGGGTTCTAACCTGTTGCAG (site GGACAGTCTAC)
recombinant barcode read abundance (log10): 0.307

CCGTAAACTTGGGTTCTAACCTGTTGCCT (site CCGTAAACTAG)
recombinant barcode read abundance (log10): 0.35

CCGTAAACTTGGGTTCTAACCTGTTGCCT (site CCGTAACCTAG)
recombinant barcode read abundance (log10): 0.0417

CCGTAAACTTGGGTTCTAACCTGTTGCCT (site CCGTAAGCTAG)
recombinant barcode read abundance (log10): 0.418

CCGTAAACTTGGGTTCTAACCTGTTGCCT (site CCGTAATCTAG)
recombinant barcode read abundance (log10): 0.0331

CCGTAACCTTGGGTTCTAACCTGTTGCCT (site CCGTAAACTAG)
recombinant barcode read abundance (log10): 0.149

CCGTAACCTTGGGTTCTAACCTGTTGCCT (site CCGTAACCTAG)
recombinant barcode read abundance (log10): 1.57

CCGTAACCTTGGGTTCTAACCTGTTGCCT (site CCGTAAGCTAG)
recombinant barcode read abundance (log10): 0.00896

CCGTAACCTTGGGTTCTAACCTGTTGCCT (site CCGTAATCTAG)
recombinant barcode read abundance (log10): 0.237

CCGTAATCTTGGGTTCTAACCTGTTGCCT (site CCGTAAACTAG)
recombinant barcode read abundance (log10): 0.0257

CCGTAATCTTGGGTTCTAACCTGTTGCCT (site CCGTAACCTAG)
recombinant barcode read abundance (log10): 0.47

CCGTAATCTTGGGTTCTAACCTGTTGCCT (site CCGTAAGCTAG)
recombinant barcode read abundance (log10): 0.211

CCGTAATCTTGGGTTCTAACCTGTTGCCT (site CCGTAATCTAG)
recombinant barcode read abundance (log10): 0.308

CCGTAGCCTTGGGTTCTAACCTGTTGCCT (site CCGAAGCCTAG)
recombinant barcode read abundance (log10): 0.129

CCGTAGCCTTGGGTTCTAACCTGTTGCCT (site CCGCAGCCTAG)
recombinant barcode read abundance (log10): 0.288

CCGTAGCCTTGGGTTCTAACCTGTTGCCT (site CCGGAGCCTAG)
recombinant barcode read abundance (log10): 0.162

CCGTAGCCTTGGGTTCTAACCTGTTGCCT (site CCGTAGCCTAG)
recombinant barcode read abundance (log10): 1.03

CCGTAGTCTTGGGTTCTAACCTGTTGCCT (site CCGTACTCTAG)
recombinant barcode read abundance (log10): 0.0425

CCGTAGTCTTGGGTTCTAACCTGTTGCCT (site CCGTAGTCTAG)
recombinant barcode read abundance (log10): 0.899

CCGTCAACTTGGGTTCTAACCTGTTGCCT (site CCGTCAACTAG)
recombinant barcode read abundance (log10): 0.226

CCGTCAACTTGGGTTCTAACCTGTTGCCT (site GTACTCTCTCT)
recombinant barcode read abundance (log10): 0.0368

CCGTCATCTTGGGTTCTAACCTGTTGCCT (site CCGTCATCTAG)
recombinant barcode read abundance (log10): 0.108

CCGTCATCTTGGGTTCTAACCTGTTGCCT (site CCGTCGTCTAG)
recombinant barcode read abundance (log10): 0.234

CCGTGCCCTTGGGTTCTAACCTGTTGCCT (site CCGTGCCCTAG)
recombinant barcode read abundance (log10): 0.676

CCGTGCCCTTGGGTTCTAACCTGTTGCCT (site GCGTGCCCTAG)
recombinant barcode read abundance (log10): 0.0432

CCGTGGCCTTGGGTTCTAACCTGTTGCTT (site CCGTGGACTAG)
recombinant barcode read abundance (log10): 0.0169

CCGTGGCCTTGGGTTCTAACCTGTTGCTT (site CCGTGGCCTAA)
recombinant barcode read abundance (log10): 0.176

CCGTGTCCTTGGGTTCTAACCTGTTGCCG (site CCGTGTCCTCG)
recombinant barcode read abundance (log10): 1.32

CCGTGTCCTTGGGTTCTAACCTGTTGCCG (site GCGTGTCCTTG)
recombinant barcode read abundance (log10): 0

CCGTTATCTTGGGTTCTAACCTGTTGCCT (site CCGATATCTAG)
recombinant barcode read abundance (log10): 0.0227

CCGTTATCTTGGGTTCTAACCTGTTGCCT (site CCGCTATCTAG)
recombinant barcode read abundance (log10): 0

CCGTTATCTTGGGTTCTAACCTGTTGCCT (site CCGGTATCTAG)
recombinant barcode read abundance (log10): 0.0837

CCGTTATCTTGGGTTCTAACCTGTTGCCT (site CCGTTATCTAG)
recombinant barcode read abundance (log10): 0.0274

CCTAACGCTTGGGTTCTAACCTGTTGCCT (site CCTAACGCTAG)
recombinant barcode read abundance (log10): 0.625

CCTAACGCTTGGGTTCTAACCTGTTGCCT (site CCTCGCGCTAG)
recombinant barcode read abundance (log10): 0.0688

CCTAAGACTTGGGTTCTAACCTGTTGCCC (site CCTAAGACTAG)
recombinant barcode read abundance (log10): 0.23

CCTAAGACTTGGGTTCTAACCTGTTGCCC (site CCTAAGACTCG)
recombinant barcode read abundance (log10): 0.0665

CCTAAGACTTGGGTTCTAACCTGTTGCCC (site CCTAAGACTGG)
recombinant barcode read abundance (log10): 0.16

CCTAAGACTTGGGTTCTAACCTGTTGCCC (site CCTAAGACTTG)
recombinant barcode read abundance (log10): 0.0914

CCTAAGCCTTGGGTTCTAACCTGTTGCGT (site CCTAAACCTAC)
recombinant barcode read abundance (log10): 1.23

CCTAAGCCTTGGGTTCTAACCTGTTGCGT (site CCTAACCCTAC)
recombinant barcode read abundance (log10): 0.977

CCTAAGCCTTGGGTTCTAACCTGTTGCGT (site CCTAAGCCTAC)
recombinant barcode read abundance (log10): 1.21

CCTAAGCCTTGGGTTCTAACCTGTTGCGT (site CCTAATCCTAC)
recombinant barcode read abundance (log10): 0.161

CCTAAGCCTTGGGTTCTAACCTGTTGCTG (site CCTAAGCCTCA)
recombinant barcode read abundance (log10): 0.473

CCTAAGCCTTGGGTTCTAACCTGTTGCTG (site TACCCTTCTAC)
recombinant barcode read abundance (log10): 0.141

CCTAATACTTGGGTTCTAACCTGTTGCGT (site CCTAATACTAC)
recombinant barcode read abundance (log10): 0.988

CCTAATACTTGGGTTCTAACCTGTTGCGT (site CCTTAGACTAC)
recombinant barcode read abundance (log10): 0.0351

CCTAATCCTTGGGTTCTAACCTGTTGCGT (site CCTAAACCTAC)
recombinant barcode read abundance (log10): 0.0528

CCTAATCCTTGGGTTCTAACCTGTTGCGT (site CCTAACCCTAC)
recombinant barcode read abundance (log10): 0.295

CCTAATCCTTGGGTTCTAACCTGTTGCGT (site CCTAAGCCTAC)
recombinant barcode read abundance (log10): 0.22

CCTAATCCTTGGGTTCTAACCTGTTGCGT (site CCTAATCCTAC)
recombinant barcode read abundance (log10): 1.1

CCTACAACTTGGGTTCTAACCTGTTGCCT (site CCTACAACTAG)
recombinant barcode read abundance (log10): 0.313

CCTACAACTTGGGTTCTAACCTGTTGCCT (site CCTACACCTAG)
recombinant barcode read abundance (log10): 0.0313

CCTACAACTTGGGTTCTAACCTGTTGCCT (site CCTACAGCTAG)
recombinant barcode read abundance (log10): 0.138

CCTACAACTTGGGTTCTAACCTGTTGCCT (site CCTACATCTAG)
recombinant barcode read abundance (log10): 0.227

CCTACAGCTTGGGTTCTAACCTGTTGCCT (site CCTACAACTAG)
recombinant barcode read abundance (log10): 0.363

CCTACAGCTTGGGTTCTAACCTGTTGCCT (site CCTACACCTAG)
recombinant barcode read abundance (log10): 0.37

CCTACAGCTTGGGTTCTAACCTGTTGCCT (site CCTACAGCTAG)
recombinant barcode read abundance (log10): 0.532

CCTACAGCTTGGGTTCTAACCTGTTGCCT (site CCTACATCTAG)
recombinant barcode read abundance (log10): 0.0747

CCTACATCTTGGGTTCTAACCTGTTGCTA (site CCTACATCTAT)
recombinant barcode read abundance (log10): 0.177

CCTACATCTTGGGTTCTAACCTGTTGCTA (site CCTACATCTTA)
recombinant barcode read abundance (log10): 0.0332

CCTACGCCTTGGGTTCTAACCTGTTGCCA (site CCTACGCCTTG)
recombinant barcode read abundance (log10): 0.842

CCTACGCCTTGGGTTCTAACCTGTTGCCA (site TTCCGAGCTCT)
recombinant barcode read abundance (log10): 0

CCTACTACTTGGGTTCTAACCTGTTGCCG (site CCTACTACTCG)
recombinant barcode read abundance (log10): 0.0812

CCTACTACTTGGGTTCTAACCTGTTGCCG (site CCTACTCCTCT)
recombinant barcode read abundance (log10): 0.0358

CCTACTCCTTGGGTTCTAACCTGTTGCCT (site CCTACTCCTAG)
recombinant barcode read abundance (log10): 0.281

CCTACTCCTTGGGTTCTAACCTGTTGCCT (site CCTGCTCCTAA)
recombinant barcode read abundance (log10): 0.0634

CCTAGAGCTTGGGTTCTAACCTGTTGCCT (site CCTAGAACTAG)
recombinant barcode read abundance (log10): 0.097

CCTAGAGCTTGGGTTCTAACCTGTTGCCT (site CCTAGACCTAG)
recombinant barcode read abundance (log10): 0.241

CCTAGAGCTTGGGTTCTAACCTGTTGCCT (site CCTAGAGCTAG)
recombinant barcode read abundance (log10): 0.694

CCTAGAGCTTGGGTTCTAACCTGTTGCCT (site CCTAGATCTAG)
recombinant barcode read abundance (log10): 0.0587

CCTAGATCTTGGGTTCTAACCTGTTGCCT (site CCTAGAACTAG)
recombinant barcode read abundance (log10): 0.107

CCTAGATCTTGGGTTCTAACCTGTTGCCT (site CCTAGACCTAG)
recombinant barcode read abundance (log10): 0.141

CCTAGATCTTGGGTTCTAACCTGTTGCCT (site CCTAGAGCTAG)
recombinant barcode read abundance (log10): 0.0181

CCTAGATCTTGGGTTCTAACCTGTTGCCT (site CCTAGATCTAG)
recombinant barcode read abundance (log10): 0.372

Source: the supplement of paper PMC11208160
